# Source: publication PMC3210919 (Biochemistry, 2011)
# Key:
# [1] = tested on: wild-type RePC (pyruvate carboxylase from R. etli); assay: Pyruvate carboxylation activity, malate dehydrogenase coupled assay; assay type: biochemical, Rhizobium etli
# [2] = tested on: PC from B. Thermodenitrificans; settings: read-out: apparent Km for HCO3^−; presence of acetyl-CoA; ref [32]; cited from earlier work
# [3] = target: wild-type RePC (Rhizobium etli, UniProt Q2K340); assay type: biochemical
# [4] = target: sheep kidney PC; settings: noncompetitive with respect to MgATP, full forward reaction; ref [22]; cited from earlier work
# [5] = labelled substrate varied, others saturating, pH 7.5, 25° C, 0.25 mM acetyl-CoA
# [6] = extrapolated to saturating phosphonoacetate
Structure (SMILES),"Km [1, 5] [mM]","kcat [1, 5] [s⁻¹]",Km [2] [mM],type of inhibition with respect to MgATP [1],"Kii (intercept inhibition constant) ([1]; linear noncompetitive with respect to MgATP, eqn (9)) [mM]",fold lower Kii for MgADP phosphorylation than for pyruvate carboxylation [3] [fold],fold lower Kis for MgADP phosphorylation than for pyruvate carboxylation [3] [fold],type of inhibition with respect to carbamoyl phosphate [3],"V/Km at saturating phosphonoacetate, % of the uninhibited reaction [3, 6] [%]","Vmax at saturating phosphonoacetate, % of the uninhibited reaction [3, 6] [%]","Kii (intercept inhibition constant) ([3]; hyperbolic noncompetitive with respect to carbamoyl phosphate, eqn (10)) [mM]",Ki [4] [µM]
O=C(O)O [HCO3^−],10.8 ± 0.4,11.7 ± 0.333,16,–,–,–,–,–,–,–,–,–
O=C(O)CP(=O)(O)O [phosphonoacetate],–,–,–,noncompetitive,18 ± 7,890,100,"hyperbolic, noncompetitive inhibition",1.5,1,0.021 ± 0.001,500
